We go through two compounds from patent US10280173B2, “Ibrutinib solid forms and production process therefor” (WAVELENGTH ENTERPRISES LTD., priority 2014, dated 2019).

Series [1] can be described thus: Hygroscopicity test according to the European Pharmacopoeia, 5.11. Format: physicochemical. The following applies: 80±2% relative humidity, 25° C., 24 hours. As for the experimental part:
The hygroscopicity test was carried out according to the European Pharmacopoeia, 5.11 Characters Section in Monographs at ambient temperature (about 25° C.) on substance “as is”.
Desiccator with saturated ammonium chloride solution was prepared as follows: to a 100 mL of water was added accurately weighed 46.3 g of ammonium chloride under mixing. The solubility of ammonium chloride in water at ambient temperature is about 41.4 g/100 mL water at 30° C. An amount of amorphous ibrutinib was placed in a glass weighing vessel with stopper (m1) and weighed (m2). The un-stoppered vessel was placed in a desiccator containing a saturated solution of ammonium chloride (80±2% relative humidity) at 25° C. for 24 hours. The weighing vessel was stoppered and weighed (m3). The percentage increase in mass was calculated according to the following formula: […]
The following Table 10 includes the standard defined hygroscopicity values according to the European Pharmacopoeia, 5.11 Characters Section in Monographs: […]

The conditions of series [2]: rats; cited from earlier work.

For `C=CC(=O)N1CCC[C@@H](n2nc(-c3ccc(Oc4ccccc4)cc3)c3c(N)ncnc32)C1` [amorphous ibrutinib], in series [1], the degree of hygroscopicity entry is listed as “slightly hygroscopic”. Besides, the “Increase in mass %” value in series [1] (substance as is) is 1.24%. For the same compound, the “Increase in mass g” value in series [1] (m3 minus m2) was found to be 0.01077 g.

In the case of `C=CC(=O)N1CCC[C@@H](n2nc(-c3ccc(Oc4ccccc4)cc3)c3c(N)ncnc32)C1` [ibrutinib, 1-[(3R)-3-[4-amino-3-(4-phenoxyphenyl)-1H-pyrazolo[3,4-d]pyrimidin-1-yl]piperidin-1-yl]prop-2-en-1-one], in series [2], the oral bioavailability is on record as 22.8%.
